Data from PMC12707346, “Discovery and validation of small molecule stabilizers of mutant triose phosphate isomerase (TPI) as potential lead candidates for TPI deficiency” (SLAS discovery : advancing life sciences R & D, 2025).
Entries after “also recorded” stand apart in the source; their conditions may differ. Like-named read-outs stand apart in the source and are kept apart here.

Assay: Tissue distribution study in mice, 20 mg/kg i.p.
Type: in vivo, C57BL/6 J mice
Conditions: mouse; for concentration at 1 h / concentration at 2 h / concentration at 4 h / concentration at 8 h / concentration at 0.5 h / Kp at 1 h / Kp at 2 h / Kp at 4 h / Kp at 8 h / Kp at 0.5 h: male, IP 20 mg/kg; for concentration at 1 h / concentration at 2 h / concentration at 4 h / concentration at 8 h / concentration at 0.5 h: ip; for Kp at 1 h / Kp at 2 h / Kp at 4 h / Kp at 8 h / Kp at 0.5 h: read-out: Mean Tissue/ Plasma Conc Ratio
Description: Male C57BL/6 J (Jackson Laboratories) wild type mice (age: 40–60 days) weighing 25–30 g, were used for the tissue distribution study. Mice were randomly assigned in two groups: blank (n = 1) and treatment. The treatment group received 20 mg/kg compound 424 intraperitoneally (n = 15; 3 animals per time point i.e., 0.5, 1, 2, 4, and 8 h). Molport 002–877–424 was formulated in a vehicle consisting of 20 % DMSO, 50 % PEG300, and 30 % sterile water. At each time point animals were euthanized via isoflurane overdose. Blood was collected in ETDA-coated tubes at each time points and centrifuged at 15,000 x g for 5 min. The separated plasma was stored at −80 °C. Following blood collection, liver, kidney, skeletal muscle and brain were isolated, rinsed in normal saline and approximately 100 mg of tissues were snap-frozen and stored at −80 °C. All plasma and tissue samples were shipped on dry ice to Touchstone Biosciences for further analysis. Sample preparation and analysis was performed at Touchstone Biosciences exactly as described in [20].

[1] = C57BL/6 J, kidney, 20 mg/kg, Kidney, read-out: Mean Tissue
[2] = C57BL/6J, liver homogenate, 20 mg/kg, Liver, read-out: Mean Plasma or Tissue Homogenate Conc
[3] = C57BL/6J, liver homogenate, 20 mg/kg, Liver, read-out: Plasma or Tissue Homogenate Conc (individual animals)
[4] = C57BL/6J, liver, 20 mg/kg, Liver, read-out: Mean Tissue
[5] = C57BL/6J, muscle homogenate, 20 mg/kg, Muscle, read-out: Mean Plasma or Tissue Homogenate Conc
[6] = C57BL/6J, muscle homogenate, 20 mg/kg, Muscle, read-out: Plasma or Tissue Homogenate Conc (individual animals)
[7] = C57BL/6J, muscle, 20 mg/kg, Muscle, read-out: Mean Tissue
[8] = C57BL/6 J, plasma, 20 mg/kg, Plasma, read-out: Mean Plasma or Tissue Homogenate Conc
[9] = C57BL/6 J, plasma, 20 mg/kg, Plasma, read-out: Plasma or Tissue Homogenate Conc (individual animals)
[10] = C57BL/6J, muscle/plasma, Muscle

SMILES: c1ccc(-c2nnc(-c3ccccn3)nc2NC2CCCCC2)cc1 [MolPort-002-877-424, C1CCC(CC1)Nc2nc(nnc2c3ccccc3)c4ccccn4]
- concentration at 1 h [1]: 8510 ng/g
- concentration at 2 h [1]: 4070 ng/g
- concentration at 4 h [1]: 1760 ng/g
- concentration at 8 h [1]: 784 ng/g
- concentration at 0.5 h [2]: 3.6 µg/mL
- concentration at 0.5 h [3]: 4.28 µg/mL
- concentration at 1 h [2]: 3.03 µg/mL
- concentration at 1 h [3]: 2.45 µg/mL
- concentration at 2 h [2]: 1.57 µg/mL
- concentration at 2 h [3]: 1.37 µg/mL
- concentration at 4 h [2]: 0.687 µg/mL
- concentration at 4 h [3]: 0.539 µg/mL
- concentration at 8 h [2]: 0.273 µg/mL
- concentration at 8 h [3]: 0.205 µg/mL
- concentration at 0.5 h [4]: 14400 ng/g
- concentration at 1 h [4]: 12100 ng/g
- concentration at 2 h [4]: 6270 ng/g
- concentration at 4 h [4]: 2750 ng/g
- concentration at 8 h [4]: 1090 ng/g
- concentration at 0.5 h (C57BL/6 J, muscle homogenate, 20 mg/kg, Muscle, read-out: Mean Plasma or Tissue Homogenate Conc): 0.516 µg/mL
- concentration at 0.5 h (C57BL/6 J, muscle homogenate, 20 mg/kg, Muscle, read-out: Plasma or Tissue Homogenate Conc (individual animals)): 0.443 µg/mL
- concentration at 1 h [5]: 0.39 µg/mL
- concentration at 1 h [6]: 0.336 µg/mL
- concentration at 2 h [5]: 0.192 µg/mL
- concentration at 2 h [6]: 0.152 µg/mL
- concentration at 4 h [5]: 0.0833 µg/mL
- concentration at 4 h [6]: 0.0636 µg/mL
- concentration at 8 h [5]: 0.0331 µg/mL
- concentration at 8 h [6]: 0.0261 µg/mL
- concentration at 0.5 h (C57BL/6 J, muscle, 20 mg/kg, Muscle, read-out: Mean Tissue): 2060 ng/g
- concentration at 1 h [7]: 1560 ng/g
- concentration at 2 h [7]: 768 ng/g
- concentration at 4 h [7]: 333 ng/g
- concentration at 8 h [7]: 132 ng/g
- concentration at 0.5 h [8]: 10.5 µg/mL
- concentration at 0.5 h [9]: 12.3 µg/mL
- concentration at 1 h [8]: 9.15 µg/mL
- concentration at 1 h [9]: 7.7 µg/mL
- concentration at 2 h [8]: 4.81 µg/mL
- concentration at 2 h [9]: 5.56 µg/mL
- concentration at 4 h [8]: 2.19 µg/mL
- concentration at 4 h [9]: 1.93 µg/mL
- concentration at 8 h [8]: 1.03 µg/mL
- concentration at 8 h [9]: 0.868 µg/mL
- Kp at 1 h [10]: 0.17
- Kp at 2 h [10]: 0.16
- Kp at 4 h [10]: 0.152
- Kp at 8 h [10]: 0.128
- Kp at 0.5 h (C57BL/6 J, Brain): 0.134
- Kp at 1 h (C57BL/6 J, Brain): 0.12
- Kp at 2 h (C57BL/6 J, Brain): 0.113
- Kp at 4 h (C57BL/6 J, Brain): 0.105
- Kp at 8 h (C57BL/6 J, Brain): 0.086
- Kp at 1 h (C57BL/6 J, Kidney): 0.929
- Kp at 2 h (C57BL/6 J, Kidney): 0.846
- Kp at 4 h (C57BL/6 J, Kidney): 0.801
- Kp at 8 h (C57BL/6 J, Kidney): 0.758
- Kp at 0.5 h (C57BL/6 J, Muscle): 0.197
- levels in muscle (20 mg/kg i.p.): 1 to 1.6 µM
- tissue distribution (20 mg/kg i.p., 20 mg/kg): accumulated preferentially in liver and kidney; also recorded: moderately brain-penetrant
